{"source": "patent US10196601B2", "about": "“Cell culture medium and process for controlling α-amidation and/or C-terminal amino acid cleavage of polypeptides” (LEK PHARMACEUTICALS D.D., priority 2013, dated 2019)", "key": {"PAM enzyme [1]": {"system": "PAM enzyme", "assay": "amount of C-terminal α-amidated Pro of the expressed antibody (in vivo PAM activity), SF system", "format": "cell-based, Chinese hamster", "procedure": "(§1) Experiments (using different illustrative glycoproteins) were performed in shake flask (SF) systems, where […] SFs with a final volume of 125 ml were used. All experiments started by thawing of a research working cell bank (rWCB), such as CHO cell line DP-12 (CHO DP-12 clone #1934 [CHO DP-12, clone #1934 aIL8.92 NB 28605/14] (ATCC® CRL-12445™) producing recombinant human anti-IL-8 or CHO-SSF cells expressing a monoclonal antibody directed to tumour necrosis factor, TNF (see PCT/EP2011/074181 for further details) followed by several subcultivations under standard conditions according to manufacture instructions until enough cells for the inoculation were available For all experiments, a 14 days generic fed batch fermentation was used and a generic feeding regime comprising feeding of glucose, glutamine and amino acids was performed. All SFs were incubated in a shaker incubator (Kuhner, Switzerland) at the following conditions: temperature of 36.5° C., CO2=10% and shaking speed 200 rpm.\n(§2) At the end of 14 days of BR and SF bioprocesses (i.e., on day 14), harvests were sampled to 50 ml centrifuge tubes. […] Purification was done either using AKTA chromatography system with 1 ml HiTrap column (GE Healthcare, cat. no. 11-0034-93) or TECAN Freedom EVO pipetting station with 200 μl RoboColumns (Atoll, cat. no. 01050408R).\n(§3) To measure the amount of C-terminal α-amidated Pro and the amount of C-terminal Lys, Cation Exchange Chromatography (CEX) was performed according to the laboratory procedure. Main charged variants were designated as 0K, pseudo 1K (1+) and pseudo 2K (2+). The positive charge refers to the Lys or α-amidated Pro at the C-terminus of the heavy chain. Charged variants (Lys, α-amidated Pro) were differentiated by CP cleavage of C-terminal Lys followed by the same CEX analysis. Structures eluting before the main three variants were designated as AP (acidic peaks) and those eluting after them as BP (basic peaks).\n(§4) The experiment was performed in 500 ml SF with a final volume of 125 ml. After 14 days of fed batch bioprocess, harvests were collected, centrifuged, sterile filtered through a PES membrane and immediately subjected to a single step affinity chromatography (AC) purification and a subsequent analysis of C-terminal α-amidation by […]. Design Expert version 7.1.3 (Stat-Ease, Inc., Minneapolis, USA) was used to build the response surface design and to perform the statistical analysis of the experimental results. A MinRes IV design was used to determine the influence of the tested trace elements on cell productivity, C-terminal α-amidation and C-terminal carboxypeptidation of the investigated monoclonal antibody. Analyzed design expert (Stat-Ease, Inc., Minneapolis, USA) responses included end of fed-batch titer, amount of C-terminal α-amidated Pro and amount of C-terminal Lys.\n(§5) The experiment was performed in 500 ml SF with a final volume of 125 ml. After 14 days of fed batch bioprocess, harvests were collected, centrifuged, sterile filtered through a PES membrane and immediately subjected to a single step AC purification and a subsequent analysis of C-terminal α-amidation by […].\n(§6) After performing the above described analytical steps, the measured values were inserted into the DOE program and analyzed. The α-value of statistical significance was set to 0.100, which means that factors with a P-value higher than 0.100 were excluded from the statistical mode since they were non-significant."}, "[2]": {"system": "CHO cells expressing a monoclonal antibody", "assay": "end of fed-batch titer in shake flask (SF) fed batch culture", "format": "cell-based, Chinese hamster", "procedure": "as §1, §4\nEffects that were above the Bonferroni limit were certainly significant and effects that were above the t-Value limit were possibly significant. Effects that were below the t-Value limit were not selected as they were not significant. After selecting significant effects, the ANOVA statistical program was employed to confirm that only statistically significant effects were included in the model.\nas §5, §6"}, "CHO cells [3]": {"system": "CHO cells", "assay": "cell viability in SF culture (trypan blue exclusion)", "format": "cell-based, Chinese hamster", "conditions": "experiment 2, SF; selenium 3 μM (data not shown)", "procedure": "Experiments (using different illustrative glycoproteins) were performed in shake flask (SF) systems, where […] SFs with a final volume of 125 ml were used.\nas §5"}, "PAM enzyme [4]": {"system": "PAM enzyme", "assay": "amount of C-terminal α-amidated Pro (in vivo PAM activity), BR system", "format": "cell-based, Chinese hamster", "conditions": "5 L BR", "procedure": "as §2, §3\n(§7) All experiments were performed in 5 L BRs."}, "[5]": {"system": "CHO cells expressing a monoclonal antibody", "assay": "titer in 5 L bioreactor (BR) fed batch culture", "format": "cell-based, Chinese hamster", "conditions": "5 L BR", "procedure": "as §7"}, "CP enzyme [6]": {"system": "CP enzyme", "assay": "amount of C-terminal Lys (in vivo CP activity), BR system", "format": "cell-based, Chinese hamster", "conditions": "5 L BR", "procedure": "as §2, §3, §7\nTo test the effect of zinc on the CP activity, three different zinc chloride concentrations were tested, namely 3.7 μM, 11 μM and 22 μM. […] In regard to productivity, a constant drop of productivity was measured with the decrease of the zinc concentration."}, "CP enzyme [7]": {"system": "CP enzyme", "assay": "amount of C-terminal Lys of the expressed antibody (in vivo CP activity), SF system", "format": "cell-based, Chinese hamster", "procedure": "as §1, §2, §3, §4, §5, §6"}, "CHO cells [8]": {"system": "CHO cells", "conditions": "5 L BR", "description": "All results were finally confirmed in a bioreactor (BR) system, where 5 L glass bioreactors were used.\nIn both the SF and BR system, the cell growth and cell viability were measured with the Vi-Cell XR analyzer (Beckman Coulter) using the trypan blue exclusion method for cell viability determination and automated cell counting for determination of the cell concentration. The monoclonal antibody content was determined by affinity liquid chromatography (ALC). A calibration curve was made by diluting the generic reference. […] The results were expressed in gram (g) of protein per liter (L) of harvest.\nThe obtained SF results were finally also tested in a bioreactor (BR) environment. All experiments were performed in 5 L BRs."}}, "note": "Like-named read-outs stand apart in the source and are kept apart here."}
{"smiles": "[Cl][Cu][Cl]", "note": "[copper, copper chloride]", "values": [{"measurement": "increase of amount of C-terminal α-amidated Pro", "setting": "PAM enzyme [1]; experiment 1, SF, 10-fold increased copper (FIG. 4)", "result": 2.5, "unit": "%"}, {"measurement": "amount of C-terminal α-amidated Pro", "setting": "PAM enzyme [1]; experiment 2, DOE model, copper 0.06 μM", "result": 2.1, "unit": "%"}, {"measurement": "amount of C-terminal α-amidated Pro", "setting": "PAM enzyme [1]; experiment 2, DOE model, copper 0.18 μM", "result": 2.2, "unit": "%"}]}
{"smiles": "O=[Se]([O-])[O-].[Na+].[Na+]", "note": "[selenium, sodium selenite]", "values": [{"measurement": "amount of C-terminal α-amidated Pro", "setting": "PAM enzyme [1]; experiment 1, SF, 10-fold increased selenium (FIG. 4)", "result": 4.5, "unit": "%"}, {"measurement": "amount of C-terminal α-amidated Pro", "setting": "PAM enzyme [1]; experiment 1, SF, before 10-fold increase of selenium (FIG. 4)", "result": 6.5, "unit": "%"}, {"measurement": "amount of C-terminal α-amidated Pro", "setting": "PAM enzyme [1]; experiment 2, selenium 0.17 μM (FIG. 8)", "result": 2.2, "unit": "%"}, {"measurement": "amount of C-terminal α-amidated Pro", "setting": "PAM enzyme [1]; experiment 2, selenium 3.00 μM (FIG. 8)", "result": 1.26, "unit": "%"}, {"measurement": "titer", "setting": "[2]; experiment 1, SF, selenium 0.017 μM", "result": 0.4, "unit": "g/L"}, {"measurement": "effect on titer", "setting": "[2]; experiment 2, SF, selenium above 3 μM (FIG. 7)", "result": "titer decrease"}, {"measurement": "viability", "setting": "CHO cells [3]", "result": "below 80%"}, {"measurement": "C-terminal α-amidated Pro", "setting": "PAM enzyme [4]; 0.17 μM selenium (FIG. 12)", "result": 9.3, "unit": "%"}, {"measurement": "C-terminal α-amidated Pro", "setting": "PAM enzyme [4]; 2.31 μM selenium (FIG. 12)", "result": 2.25, "unit": "%"}, {"measurement": "titer decrease", "setting": "[5]; 2.31 μM versus 0.17 μM selenium (FIG. 11B)", "result": 1, "unit": "g/L"}]}
{"smiles": "[Cl-].[Cl-].[Zn+2]", "note": "[zinc, zinc chloride]", "values": [{"measurement": "C-terminal Lys", "setting": "CP enzyme [6]; 3.7 μM zinc (FIG. 14)", "result": 6, "unit": "%"}, {"measurement": "C-terminal Lys", "setting": "CP enzyme [6]; 22 μM zinc (FIG. 14)", "result": 3.15, "unit": "%"}, {"measurement": "amount of C-terminal Lys", "setting": "CP enzyme [7]; confirmation, SF, three parallels, 2.3 μM zinc (FIG. 10B)", "result": "15.97%±0.79%"}, {"measurement": "amount of C-terminal Lys", "setting": "CP enzyme [7]; confirmation, SF, three parallels, unchanged in-house medium, 22 μM zinc (FIG. 10B)", "result": "1.99%±0.08%"}, {"measurement": "amount of C-terminal Lys", "setting": "CP enzyme [7]; experiment 1, SF, 10-fold increased zinc (FIG. 6)", "result": 8.5, "unit": "%"}, {"measurement": "amount of C-terminal Lys", "setting": "CP enzyme [7]; experiment 1, SF, before 10-fold increase of zinc (FIG. 6)", "result": 22, "unit": "%"}, {"measurement": "amount of C-terminal Lys", "setting": "CP enzyme [7]; experiment 2, DOE model, zinc 0.15 μM (FIG. 9)", "result": 15, "unit": "%"}, {"measurement": "amount of C-terminal Lys", "setting": "CP enzyme [7]; experiment 2, DOE model, zinc 5.00 μM (FIG. 9)", "result": 5, "unit": "%"}, {"measurement": "titer", "setting": "[2]; experiment 1 (MinRes IV), SF, 14 days fed batch, zinc 2.201 μM", "result": 0.4, "unit": "g/L"}, {"measurement": "titer", "setting": "[2]; experiment 1, SF, zinc 22.012 μM", "result": 0.6, "unit": "g/L"}, {"measurement": "titer", "setting": "[2]; experiment 2 (central composite design), DOE model, zinc 7 μM (FIG. 7)", "result": 0.4, "unit": "g/L"}, {"measurement": "titer", "setting": "[2]; experiment 2, DOE model, zinc 12 μM (FIG. 7)", "result": "above 0.6 g/L"}, {"measurement": "cell culture growth", "setting": "CHO cells [8]; 3.7 μM zinc (FIG. 13A)", "result": "significantly lower growth"}, {"measurement": "cell culture growth", "setting": "CHO cells [8]; 11 μM compared with 22 μM zinc (FIG. 13A)", "result": "well comparable"}, {"measurement": "final titer", "setting": "[5]; highest zinc concentration, 22 μM (FIG. 13B)", "result": 3.86, "unit": "g/L"}, {"measurement": "final titer", "setting": "[5]; lowest zinc concentration, 3.7 μM (FIG. 13B)", "result": 1.86, "unit": "g/L"}, {"measurement": "final titer", "setting": "[5]; zinc 11 μM (FIG. 13B)", "result": 2.90, "unit": "g/L"}]}
